The values that follow come from patent publication US9771592B2, “Methods and compositions for treating or preventing pruritis” (The Johns Hopkins University, priority 2008, dated 2017).

In one series the target is T1, MrgprA3 (Mus musculus, UniProt Q91WW3).
T1 sequence (Q91WW3 1-302): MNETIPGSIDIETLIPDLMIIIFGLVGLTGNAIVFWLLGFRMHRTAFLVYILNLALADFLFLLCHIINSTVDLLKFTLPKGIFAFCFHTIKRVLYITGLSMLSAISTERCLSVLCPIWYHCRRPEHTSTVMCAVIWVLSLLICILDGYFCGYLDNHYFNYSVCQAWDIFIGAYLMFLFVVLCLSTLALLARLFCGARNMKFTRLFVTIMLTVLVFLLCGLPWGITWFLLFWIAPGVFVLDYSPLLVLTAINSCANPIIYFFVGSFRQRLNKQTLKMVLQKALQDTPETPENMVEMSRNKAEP
Briefly: Calcium imaging of HEK293 cells transfected with Mrgpr-GFP constructs. Also on record: expressed in transfected cells; host or cells: HEK293. In kind it is cell-based. An excerpt:
(§1) Each of the twelve Mrgprs that were deleted in Mrgpr-clusterΔ^−/− mice were cloned into a mammalian expression vector (FIG. 1A), and transfected individually into human embryonic kidney (HEK) 293 cells. By fusing green fluorescent protein (GFP) to the C-termini of the Mrgpr coding sequences, both transfected cells and the proper membrane localization of the receptors was visualized. […] Increased [Ca^2+]i resulting from activation of the receptors was monitored by calcium imaging.
(§2) Serotonin also has a bicyclic structure. […] Quinine is another drug used to treat malaria and its side effects also include itch. However, it is unclear if quinine-induced itch is an allergic response.
(§3) HEK293 cells were cultured in growth medium consisted of 90% DMEM, 10% fetal bovine serum, 100 U/ml penicillin, and 100 μg/ml Streptomycin (Invitrogen) at 37° C. in the presence of […] and 5% CO2. HEK293 cells were transfected with Mrgpr-expression constructs using Lipofectamine 2000 (Invitrogen) according to the manufacturer's protocol.

In a further series the target is T2, MrgprC11 (Mus musculus, UniProt Q8CIP3).
T2 construct: expressed in transfected cells; host or cells: HEK293
T2 sequence (Q8CIP3 1-322): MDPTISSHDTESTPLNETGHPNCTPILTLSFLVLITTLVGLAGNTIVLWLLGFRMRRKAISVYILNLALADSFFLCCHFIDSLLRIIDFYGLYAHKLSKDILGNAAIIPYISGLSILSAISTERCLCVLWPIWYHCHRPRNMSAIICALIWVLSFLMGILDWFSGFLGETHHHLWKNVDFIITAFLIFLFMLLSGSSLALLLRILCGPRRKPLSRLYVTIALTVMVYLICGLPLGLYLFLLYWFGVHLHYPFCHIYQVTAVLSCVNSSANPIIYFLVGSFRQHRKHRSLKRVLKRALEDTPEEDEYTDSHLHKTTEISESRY
Described as above. In kind it is cell-based. Particulars: BAM8-22 2 μM.
Source text: as §1
(§4) HEK293 cells were transfected with Mrgpr-expression constructs using Lipofectamine 2000 (Invitrogen) according to the manufacturer's protocol.

The next series concerns the target T3, MrgprA4 (Mus musculus, UniProt Q91WW2).
T3 construct: expressed in transfected cells; host or cells: HEK293
T3 sequence (Q91WW2 1-313): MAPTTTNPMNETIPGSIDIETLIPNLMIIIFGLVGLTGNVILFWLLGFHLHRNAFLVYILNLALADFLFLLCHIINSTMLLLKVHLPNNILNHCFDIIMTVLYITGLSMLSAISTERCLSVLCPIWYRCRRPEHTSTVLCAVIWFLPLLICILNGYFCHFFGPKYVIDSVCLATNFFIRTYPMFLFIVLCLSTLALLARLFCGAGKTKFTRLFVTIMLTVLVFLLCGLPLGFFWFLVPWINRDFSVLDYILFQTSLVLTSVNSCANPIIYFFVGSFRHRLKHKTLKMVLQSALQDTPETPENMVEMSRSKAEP
The description is as above. In kind it is cell-based. Particulars: NPFF 2 μM.
Source text: as §1, §4

In a further series the test system is DRG neurons. Briefly: Calcium imaging of cultured dissociated DRG neurons. In kind it is cell-based, mouse.
The next series has as its target T4, rat MrgprC (Rattus norvegicus, UniProt Q8R4G1).
T4 sequence (Q8R4G1 1-323): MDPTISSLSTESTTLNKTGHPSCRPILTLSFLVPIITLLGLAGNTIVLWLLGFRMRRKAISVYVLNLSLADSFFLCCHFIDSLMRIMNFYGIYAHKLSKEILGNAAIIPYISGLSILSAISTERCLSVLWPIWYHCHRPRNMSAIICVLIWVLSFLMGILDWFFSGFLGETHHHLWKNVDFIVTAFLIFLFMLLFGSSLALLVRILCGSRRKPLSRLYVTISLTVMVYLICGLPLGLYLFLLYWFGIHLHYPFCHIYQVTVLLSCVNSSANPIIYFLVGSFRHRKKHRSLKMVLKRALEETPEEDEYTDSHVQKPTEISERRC
Briefly: Rescue: Mrgpr-clusterΔ-/- DRG neurons electroporated with rat Mrgpr, calcium imaging.

In the next series the test system is rats. Briefly: Scratching behavior after intradermal injection in rats. Particulars: 500 μg/50 μl, first 30 min.
For series [1] the following is noted: cited from earlier work.
In a further series the target is T5, MrgprX2 (Homo sapiens, UniProt Q96LB1).
T5 construct: expressed in transfected cells; host or cells: HEK293
T5 sequence (Q96LB1 1-330): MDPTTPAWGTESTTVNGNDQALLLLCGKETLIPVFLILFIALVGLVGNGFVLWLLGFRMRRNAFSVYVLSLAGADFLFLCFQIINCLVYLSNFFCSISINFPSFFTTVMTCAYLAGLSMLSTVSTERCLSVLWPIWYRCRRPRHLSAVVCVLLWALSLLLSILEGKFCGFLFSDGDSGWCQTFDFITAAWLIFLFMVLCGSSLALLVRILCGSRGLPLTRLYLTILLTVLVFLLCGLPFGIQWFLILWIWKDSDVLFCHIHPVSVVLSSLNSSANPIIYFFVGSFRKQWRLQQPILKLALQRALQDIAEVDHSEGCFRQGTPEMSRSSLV
Briefly: Calcium imaging of transfected HEK293 cells. The format is cell-based. An excerpt: (§5) The human Mrgpr family (i.e. MrgprXs) is much smaller than the murine family.

Another series addresses T6, MrgprX3 (Homo sapiens, UniProt Q96LB0).
T6 construct: expressed in transfected cells; host or cells: HEK293
Briefly: Calcium imaging of transfected HEK293 cells. In kind it is cell-based.
Source text: as §5

The target in series [2] is T7, MrgprX1 (Homo sapiens, UniProt Q96LB2). Briefly: Calcium imaging of HEK293 cells transfected with Mrgpr-GFP constructs. In kind it is cell-based. The procedure: as §5, §2, §3
T7 sequence (Q96LB2 whole entry): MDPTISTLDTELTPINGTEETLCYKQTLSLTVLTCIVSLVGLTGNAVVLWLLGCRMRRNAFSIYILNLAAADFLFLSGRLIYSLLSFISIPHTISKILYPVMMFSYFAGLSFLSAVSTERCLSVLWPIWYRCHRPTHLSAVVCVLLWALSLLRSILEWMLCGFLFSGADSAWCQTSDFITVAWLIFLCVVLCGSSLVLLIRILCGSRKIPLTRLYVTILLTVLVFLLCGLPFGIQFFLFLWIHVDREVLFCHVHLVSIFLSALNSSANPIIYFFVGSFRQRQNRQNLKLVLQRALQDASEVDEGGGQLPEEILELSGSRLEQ
The target in series [3] is T7, MrgprX1. Briefly: Rescue: Mrgpr-clusterΔ-/- DRG neurons electroporated with Mrgpr construct. In kind it is cell-based, mouse.
Method: To determine whether MrgprA3 or MrgprX1 can rescue the phenotypes of DRG neurons from Mrgpr-clusterΔ^−/− mice, the Mrgpr expression constructs used in the heterologous studies were electroporated into dissociated adult DRG neurons from these mice. After 24 hour in culture, expression and membrane localization of the transfected Mrgprs in the mutant neurons could be readily visualized by GFP (FIG. 8G).

Several values for one entry are separate records, joined by “and”; a condition that tells them apart may be missing. Equal values may be shown once.

T6 sequence (Q96LB0 whole entry): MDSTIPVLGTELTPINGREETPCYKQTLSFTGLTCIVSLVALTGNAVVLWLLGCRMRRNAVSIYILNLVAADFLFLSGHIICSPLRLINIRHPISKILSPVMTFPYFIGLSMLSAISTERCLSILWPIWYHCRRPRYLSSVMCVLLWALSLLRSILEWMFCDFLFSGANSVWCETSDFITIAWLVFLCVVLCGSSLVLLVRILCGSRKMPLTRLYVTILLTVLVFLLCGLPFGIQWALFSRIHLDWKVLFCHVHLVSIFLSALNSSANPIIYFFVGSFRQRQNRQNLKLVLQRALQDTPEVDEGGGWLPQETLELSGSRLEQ

The EC50 is the midpoint of the concentration-response curve. Turning to `CCN(CC)CCCC(C)Nc1ccnc2cc(Cl)ccc12` (centres unmarked) [CQ, Chloroquine], at MrgprA3, the “activation of MrgprA3 (increased [Ca2+]i)” value is reported as “strong response”. Also, the half-maximal effective concentration (EC50) at MrgprA3 (dose-response, calcium imaging) is 27.6 ± 2.03 µM. Further, the “response of MrgprC11-expressing cells” value at MrgprC11 is “failed to respond”. In addition, on MrgprA4, the “response of MrgprA4-expressing cells” value is “insensitive”. For the same molecule, in the series on DRG neurons (Mrgpr-clusterΔ-/- mice), the DRG neurons responding entry is on record as “none of the neurons”. In addition, in the series on DRG neurons (WT mice, CQ 1 mM, BAM8-22 2 μM), the “percentage of DRG neurons responding with increased [Ca2+]i” value was ~4.4% and 4-5%. Also, the “reduction of calcium responses on sequential application” value in the series with DRG neurons (WT neurons) is on record as about 20%. Further, the “response of rat MrgprC-electroporated Mrgpr-deficient neurons” value at rat MrgprC was “did not”. Further, in the series on rats, the scratching responses entry was “evoked profound scratching responses”. In series [1] (plasma), the “concentration in patient plasma” value is listed as “micromolar range”. In addition, the “concentration reached in skin and other pigmented tissues” value in series [1] (skin) is “high micromolar to millimolar concentrations”. Besides, the “response of MrgprX2-expressing cells” value on MrgprX2 is “completely insensitive”. Further, at MrgprX3, the “response of MrgprX3-expressing cells” value was “completely insensitive”. The “activation of MrgprX1 (increased [Ca2+]i)” value at MrgprX1 [2] (BAM8-22 2 μM) is given as “responded”. Also, the concentration for a half-maximal effect (EC50) on MrgprX1 [2] (dose-response, calcium imaging) was determined as 297.7 ± 2.1 µM. Besides, at MrgprX1 [3], the “MrgprX1-electroporated GFP-positive neurons generating a train of APs” value is reported as 5 out of 7 and the “[Ca2+]i response of MrgprX1-electroporated mutant neurons” value was “sensitivity”.
